Data on three compounds can be found in patent US11156599B2, “Assay for telomere length regulators” (The Johns Hopkins University, priority 2015, dated 2021).

Common to all, as to type: cell-based, mouse
In experiment [1] the test system is de novo telomere addition on chr4 in SL13 cells. Nature of the experiment: ADDIT assay (Addition of de novo initiated telomeres): modified STELA PCR and PacBio sequencing. The text has this: To examine potential mammalian genes that regulate telomere length, an assay was developed that allows visualization of telomere addition in vivo, referred here as ADDIT (Addition of de novo initiated telomeres). In a chromosomally stable CASTEiJ mouse fibroblast cell line, chromosome 4 (chr4) was modified to generate an internal 480 bp telomere ‘seed’ sequence followed by a unique I-Sce1 endonuclease cut site (FIG. 1A). The length of seed sequence was based on an early study showing that 400 bp of telomere repeats can act as functional telomeres. Using Southern blot analysis, two independent HYG-positive clones were identified, clone 1L and 1M, with a single chr4 allele correctly modified (data not shown).
To better visualize the telomere addition on the I-Sce1 cut telomere seed, the single telomere length analysis (STELA) (Baird et al., 2004, Hum Mol Genet 13, 1515-1524), a PCR-based approach that can measure telomere lengths from individual chromosome ends was modified. The STELA assay employs annealing and ligation of a linker, ‘telorette’, with TTAGGG and a unique 20-nucleotide sequence to the G-rich 3′ telomere overhang followed by PCR of the telomere from a ‘teltail’ primer and primer in the HYG sequence on the engineered chromosome (FIG. 2). The PCR product lengths will be proportional to the telomere lengths at the cleaved chr4 allele. As a control, to amplify the un-extended cut chromosome in vitro, a different linker, ‘IScerette’ was designed, which has a 4-nt homology to the 4-nt 3′ overhang created by the I-Sce1 endonuclease at the cleavage site (FIG. 2). […] This in vitro IScerette PCR product serves as a marker for the base line length of the cut, unextended telomere seed sequence.
To further verify the longer STELA PCR products represent de novo telomere addition, the PCR products were sequenced with Pacific Biosciences (PACBIO®) next generation sequencing technology. The PACBIO® platform produces longer reads and is less GC bias compared to other next generation sequencing platforms. While errors were present in the sequence as expected, the telomere repeats were easily recognizable. All of the reads from the PACBIO® were filtered and only those that had unique HYG sequence followed by telomere sequence and the ‘teltail’ primer sequence were examined. This assures that only full length of STELA PCR products were analyzed. The reads were then aligned at the junction between the HYG sequence and the telomere repeats. Wild-type TTAGGG repeats were colored orange and variant telomere repeats were colored in darker orange (FIG. 3A). Some of these variants arose due to errors in sequencing. An error rate similar to the published error rate of PACBIO® sequencing, 10-15% was observed. The errors were uniformly distributed over the reference sequence, dominated by point insertions and deletions, as expected for PACBIO® sequencing. There were three regions of divergent sequence in the original construct that are evident as darker orange stripes in the aligned reads (see for reference, in vitro IScelrette). These are small variation in TTAGGG sequence in the original SL13 clone and serve as useful internal reference points.
The original STELA protocol used for human cells (Baird et al., 2004, Hum Mol Genet 13, 1515-1524) was modified to measure telomere lengths on the de novo end of chr4 in SL13 cells. Briefly, genomic DNA was extracted using Puregene Core Kit A ^TM (Qiagen). 4 μg of genomic DNA was digested with SphI (NEB) and later diluted to 10 ng/μl in water. For the in vitro IScerette sample, genomic DNA was digested with SphI and I-SceI (NEB) prior to ligation. The ligation was carried out at 35° C. for at least 12 hrs in a volume of 10 μl containing 10 ng of digested genomic DNA, 0.9 μM of telorette linkers (mixture of telorette 1 to 6) or IScerette linker and 0.5 U of T4 DNA ligase (NEB) in 1× T4 ligation buffer. […]

Experiment [2] relates to SL13 cells. Briefly: Cell cycle profile by propidium iodide staining and flow cytometry. The conditions noted are these: 200 ng/ml colcemid or 2.5 mM thymidine, 24 hrs. As for the experimental part: SL13 cells were grown in DMEM (Gibco) supplemented with 1% Penicillin/Streptomycin/Glutamine and 10% Tet system approved FBS (Clontech, #631107). Final concentration of 2 μg/ml of doxycycline was added in the media to induce I-Sce1 expression. Typically cells were collected post 48 hours of doxcycline treatment. To arrest cells in different cell cycle phases, cells were treated with either final concentration of 200 ng/ml colcemid (Gibco KaryoMAX Colcemid Solution, #15212-012) or 2.5 mM Thymidine (Sigma, #T-1895).
Cell cycle phase was accessed by DNA content using propidium iodide (PI) staining and flow cytometry analysis. Briefly, cell pellets were washed with 1× PBS at 500× g for 5 minutes and resuspended in 500 μl of 1× PBS. 4.5 ml of ice cold 70% ethanol was added drop by drop, and incubated overnight at 4° C. Samples were washed with 5 ml 1× PBS and incubated with 500 μl of PI-Triton resuspension buffer at room temperature for ≥30 minutes protected from light. PI-Triton resuspension buffer was made of 0.1% Triton™ X-100, 200 μg/ml RNase A, 20 μg/ml PI (Invitrogen, #P3566) in 1× PBS. PI-stained samples were transferred to strainer tubes (BD Falcon) and run on FACSCalibur™ flow cytometry (BD Biosciences). Cell cycle profiles were analyzed utilizing the Dean-Jet-Fox™ model in FlowJo™ software (FlowJo™).
For orientation: A flow cytometer gives signals particle by particle.

Another experiment has as its system HA-tagged I-Sce1. Briefly: Quantitative RT-PCR of HA-tagged I-Sce1 expression. The conditions noted are these: 200 ng/ml colcemid or 2.5 mM thymidine, 48 hrs; normalized to HPRT. As for the experimental part:
To measure HA-tagged I-Sce1 expression levels, quantitative RT-PCR was performed as described in 2.4.5. Primers used are the following: HA-ISce1-FOR, 5′-[…]-3′ (SEQ ID NO: 143); ISce1-REV2, 5′-[…]-3′ (SEQ ID NO: 144); HPRT_F, 5′-[…]-3′ (SEQ ID NO: 145); HPRT_R, 5′-[…]-3′ (SEQ ID NO: 146).

Experiment [3] has as its system SL13 cells. Nature of the experiment: Southern blot of genomic DNA for de novo telomere addition smear in arrested cells. Particulars: cells arrested in G1 phase versus control cells and G2/M cells. The text has this:
To examine the in vivo chr4 cleavage and de novo telomere addition, genomic DNA extracted from SL13 cells arrested at different cell phases and treated with doxycycline for various time points were digested with Ncol restriction enzyme (NEB) and further analyzed by Southern blot as described previously in Example 1 with a random primed α-32P-labeled HYG probe.

For the compound `CN1CC[C@H](c2c(O)cc(O)c3c(=O)cc(-c4ccccc4Cl)oc23)[C@H](O)C1` [flavopiridol], in experiment [1] (Southern blot analysis of STELA PCR products, 400 nM flavopiridol), the “elongation beyond the chr4 I-Sce1-induced cut base line” value was “minimal elongation”.
With `CN[C@H]1CCc2cc(OC)c(OC)c(OC)c2-c2ccc(OC)c(=O)cc21` [colcemid], in experiment [1] (200 ng/ml colcemid, 48 hrs), the “PacBio reads with de novo telomere addition in cells held in G2/M phase” value was “significant percentage of PacBio® reads with de novo telomere addition”. Besides, in the experiment with SL13 cells [2], the “cell cycle phase of arrest” value is listed as “arrested in G2/M phase”. The “I-Sce1 expression in cells arrested at different phases” value in the experiment with HA-tagged I-Sce1 is “no significant difference”.
For `Cc1cn([C@H]2C[C@H](O)[C@@H](CO)O2)c(=O)[nH]c1=O` [thymidine], the “cell cycle phase of arrest” value in the experiment with SL13 cells [2] was “G1/early S phase”. In the experiment on SL13 cells [3], the “'smear' representative of de novo telomere addition” value is “even less ‘smear’”. In the experiment on HA-tagged I-Sce1, the “I-Sce1 expression in cells arrested at different phases” value is “no significant difference”.
